In US11166460B2, “α-amino acrylate microbicide, and preparation method therefor and uses thereof” (priority 2017, dated 2021):
≈ marks a conversion by molar mass, not a printed value. Like-named read-outs stand apart in the source and are kept apart here.

Tests used:
wheat Gibberella zeae = assay: microbe, parasite or virus in culture; type: cell-based; settings: Fusarium graminearum
[1] = tested on: Phytophthora infestans (Mont) de Bary; assay: microbe, parasite or virus in culture; type: cell-based; settings: Phytophthora infestans
[2] = tested on: tobacco mosaic virus (TMV); assay: Anti-TMV protective activity (protection mode), live friction inoculation on tobacco seedlings; type: in vivo; settings: Tobacco mosaic virus, read-out: Anti-TMV activity, Protection effect (inhibition)
Physalospora piricola = assay: Fungicidal activity, fungi growth rate method, PP; type: cell-based; settings: 50 μg/mL; read-out: Fungicidal activity, inhibition, PP
[3] = tested on: tobacco mosaic virus (TMV); assay: Anti-TMV curative activity (treatment mode), live friction inoculation on tobacco seedlings; type: in vivo; settings: Tobacco mosaic virus, read-out: Anti-TMV activity, Curative effect (inhibition), 100 μg/mL, tobacco seedlings, checked on seventh day
Rhizoctonia cerealis = assay: Fungicidal activity, fungi growth rate method, RC; type: cell-based; settings: Ceratobasidium cereale, 50 μg/mL
Pellicularia sasakii = assay: Fungicidal activity, fungi growth rate method, PS; type: cell-based; settings: 50 μg/mL; read-out: Fungicidal activity, inhibition, PS
Alternaria solani = assay: Fungicidal activity, fungi growth rate method, AS; type: cell-based; settings: Alternaria solani; 50 μg/mL; read-out: Fungicidal activity, inhibition, AS
Botrytis cinerea = assay: Fungicidal activity, fungi growth rate method, BC; type: cell-based; settings: Botrytis cinerea; 50 μg/mL; read-out: Fungicidal activity, inhibition, BC
[4] = tested on: tobacco mosaic virus (TMV); assay: Anti-TMV inducing activity (induction mode), tobacco seedlings; type: in vivo; settings: Tobacco mosaic virus, read-out: Anti-TMV activity, Induction effect (inhibition), 100 μg/mL, tobacco seedlings
Sclerotinia sclerotiorum = assay: microbe, parasite or virus in culture; type: cell-based; settings: Sclerotinia sclerotiorum; for inhibition at 50 µg/mL: 50 μg/mL
Cercospora arachidicola = assay: Fungicidal activity, fungi growth rate method, CA; type: cell-based; settings: Mycosphaerella arachidis; 50 μg/mL; read-out: Fungicidal activity, inhibition, CA
[5] = tested on: tobacco mosaic virus (TMV); assay: Anti-TMV inactivation activity (inactivation mode), compound mixed with TMV before inoculation of tobacco leaves; type: in vivo; settings: Tobacco mosaic virus, read-out: Anti-TMV activity, Inactivation effect (inhibition)
[6] = read-out: Fungicidal activity, inhibition, GZ
[7] = read-out: Fungicidal activity, inhibition, PI
[8] = read-out: Fungicidal activity, inhibition, RC
[9] = read-out: Fungicidal activity, inhibition, SS
[10] = read-out: Fungicidal activity (inhibition) against SS: Sclerotinia sclerotiorum
[11] = read-out: Fungicidal activity (inhibition) against GZ: wheat Gibberella zeae

| SMILES | inhibition at 50 µg/mL (wheat Gibberella zeae; [6]) | inhibition at 50 µg/mL [1, 7] | inhibition at 100 µg/mL [2] | inhibition at 50 µg/mL (Physalospora piricola) | inhibition at 100 µg/mL [3] | inhibition at 50 µg/mL (Rhizoctonia cerealis; [8]) | inhibition at 50 µg/mL (Pellicularia sasakii) | inhibition at 50 µg/mL (Alternaria solani) | inhibition at 50 µg/mL (Botrytis cinerea) | inhibition at 100 µg/mL [4] | inhibition at 50 µg/mL (Sclerotinia sclerotiorum; [9]) | melting point | inhibition at 50 µg/mL (Cercospora arachidicola) | inhibition at 100 µg/mL [5] | inhibition at 50 µg/mL (Sclerotinia sclerotiorum; [10]) | inhibition at 50 µg/mL (wheat Gibberella zeae; [11]) | inhibition at 50 µg/mL ([1]; read-out: Fungicidal activity (inhibition) against PI: Phytophthora infestans (Mont) de Bary) | inhibition at 50 µg/mL (Rhizoctonia cerealis; read-out: Fungicidal activity (inhibition) against RC: Rhizoctonia cerealis) | EC90 (Sclerotinia sclerotiorum; read-out: EC90 against S. sclerotiorum in vitro) |
| --- | --- | --- | --- | --- | --- | --- | --- | --- | --- | --- | --- | --- | --- | --- | --- | --- | --- | --- | --- |
| COC(=O)CCCNC(=O)/C(=C/c1ccccc1)NC(=O)c1ccccc1 [Compound 36, (Z)-N-[1-[[1-(4-methylbutanoate)amino]carbonyl]-2-phenylethenyl]benzamide] | 0% | 2% | 13% | 0% | 36% | 16% | 0% | 21% | 10% | 41% | 50% | 110 to 111 °C | 10% | 0% |  |  |  |  |  |
| O=C(O)/C(=C/c1ccccc1)NC(=O)c1ccc(C(F)(F)F)cc1 [Compound 68, (Z)-2-[4-(trifluoromethyl)benzoylamino]-3-phenylpropenoic acid] | 17% | 18% | 37% | 7% | 0% | 9% | 13% | 13% | 20% | 34% | 73% | 184 to 186 °C | 12% | 3% | 60 to 80% |  |  |  |  |
| O=C(O)/C(=C/c1ccccc1)NC(=O)C1CC1 [Compound 67, (Z)-2-cyclopropanoylamino-3-phenylpropenoic acid] | 23% | 13% | 78% | 3% | 52% | 10% | 6% | 20% | 19% | 34% | 67% | 193 to 195 °C | 15% | 57% |  |  |  |  |  |
| O=C(NC(Cc1ccccc1)C(=O)N1CCC(O)(c2ccc(Br)cc2)CC1)C1CC1 (stereo not shown) [Compound 49, N-[1-[[4-(4-bromophenyl)-4-hydroxy-1-piperidinyl]carbonyl]-2-phenylethyl]cyclopropanecarboxamide] | 43% | 11% | 41% | 6% | 29% | 18% | 14% | 28% | 15% | 21% | 50% | 101 to 103 °C | 12% | 31% |  |  |  |  |  |
| O=C(N/C(=C\c1ccc(C(F)(F)F)cc1)C(=O)N1CCC(O)(c2ccc(Br)cc2)CC1)c1ccccc1 [Compound 20, (Z)-N-[1-[[4-(4-bromophenyl)-4-hydroxy-1-piperidinyl]carbonyl]-2-(4-trifluoromethylphenyl)ethenyl]benzamide] | 7% | 21% | 52% | 10% | 0% | 19% | 21% | 17% | 7% | 53% | 67% | 137 to 139 °C | 16% | 0% |  |  |  |  |  |
| O=C(N/C(=C\c1ccco1)C(=O)N1CCC(O)(c2ccc(Br)cc2)CC1)C1CCCCC1 [Compound 63, (Z)-N-[1-[[4-(4-bromophenyl)-4-hydroxy-1-piperidinyl]carbonyl]-2-(2-furanyl)ethenyl]cyclohexanecarboxamide] | 57% | 21% | 53% | 18% | 36% | 21% | 14% | 29% | 35% | 9% | 44% | 121 to 123 °C | 24% | 50% |  |  |  |  |  |
| O=C(N/C(=C\c1ccccc1)C(=O)N1CCC(O)(c2ccc(Br)cc2)CC1)c1ccc(Cl)cc1 [Compound 7, (Z)-N-[1-[[4-(4-bromophenyl)-4-hydroxy-1-piperidinyl]carbonyl]-2-phenylethenyl]-4-chlorobenzamide] | 71% | 16% | 50% | 12% | 39% | 18% | 20% | 25% | 21% | 1% | 44% | 193 to 194 °C | 18% | 31% |  | 71% |  |  |  |
| O=C(N/C(=C\c1c[nH]cn1)C(=O)N1CCC(O)(c2ccc(Br)cc2)CC1)c1ccccc1 [Compound 26, (Z)-N-[1-[[4-(4-bromophenyl)-4-hydroxy-1-piperidinyl]carbonyl]-2-(4-imidazole)ethenyl]benzamide] | 2% | 19% | 1% | 7% | 0% | 16% | 0% | 21% | 14% | 1% | 78% | 176 to 178 °C | 16% | 21% | 60 to 80% | 77% |  |  |  |
| CC(C)(C)OC(=O)N1CCC(c2nc(/C=C(\NC(=O)c3ccccc3)C(=O)NCC(F)F)cs2)CC1 [Compound 43, (Z)-N-[1-[(2,2-difluoroethylamino)carbonyl]-2-[4-[2-[4-(1-Boc-piperidine)]thiazol]]ethenyl]benzamide] | 36% | 38% | 2% | 40% | 30% | 38% | 39% | 43% | 40% | 31% | 96% | 164 to 165 °C | 32% | 27% |  |  | 38% | 38% | 154 µg/mL (≈ 295 µM) |
